Among the test systems are UO-31; NCI-H23; LOX IMVI; SW-620; RPMI-8226; Hs-578T; OVCAR-3; MCF7; TK-10; HOP-62; HCT-116; ACHN; UACC-257; Malme-3M; RXF 393; PC-3; MOLT-4; SN12C; HOP-92.
Assay in all cases: DTP human tumour cell line panel, 48 h

The values that follow come from ChEMBL document CHEMBL1201862, “PubChem BioAssay data set” (2004).

Structures are written as SMILES.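 Values below derive from 48-hour exposures of cells grown in 96-well plates, with endpoints linearly interpolated between the two concentrations bracketing the appropriate inhibition level. GI50 marks 50% less growth.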 The source made the active and inactive calls. Rule as the data show it: active = GI50 up to about 1.1 µM and inactive = higher. A value given as a limit tells only on which side of the number the result lay.

Regarding `Oc1cc(-c2cccc(Br)c2)nc2cc3c(cc12)OCO3`, the GI50 is 5.81 µM (inactive) in the test with UO-31; 5.38 µM (inactive) in the test on NCI-H23; 2.75 µM (inactive) in the test with LOX IMVI; 3.61 µM (inactive) in the test with SW-620; 15 µM (inactive) in the test with RPMI-8226; 3.32 µM (inactive) in the test on Hs-578T. In addition, the GI50 in the test with OVCAR-3 was 3.01 µM (inactive); with MCF7, 18.7 µM (inactive); with TK-10, 12.9 µM (inactive); in the test on HOP-62 it was 1.99 µM (inactive); with HCT-116 it was 3.53 µM (inactive); in the test with ACHN it was 5.32 µM (inactive). Moreover, the GI50 is 5.24 µM (inactive) in the test on UACC-257; 2.7 µM (inactive) in the test on Malme-3M; 4.33 µM (inactive) in the test on RXF 393; 5.43 µM (inactive) in the test on PC-3; 72.3 µM (inactive) with MOLT-4; 5.6 µM (inactive) with SN12C.

As for `Cc1ccc(CCCCCOc2ccc(C3=NCCO3)cc2)s1`, the GI50 with UO-31, with NCI-H23, with SW-620, in the test on RPMI-8226, in the test on Hs-578T and with OVCAR-3 was > 100 µM (inactive) each time. Also, the GI50 in the test with MCF7, with TK-10, with HOP-62, in the test with HCT-116, with ACHN and in the test with UACC-257 was > 100 µM (inactive) each time. For the same molecule, the GI50 in the test with Malme-3M, with RXF 393, with PC-3, with MOLT-4 and with SN12C was > 100 µM (inactive) throughout.

On to `CCOc1ccc(NC(=O)/C=C/c2ccco2)cc1`, for which the GI50 in the test with UO-31 was 87.1 µM (inactive); with NCI-H23, > 100 µM (inactive); with LOX IMVI, 54.3 µM (inactive); in the test on SW-620, > 100 µM (inactive); in the test with RPMI-8226, 32.3 µM (inactive); with Hs-578T, 65 µM (inactive). Also, the GI50 is > 10 µM (inactive) in the test with OVCAR-3; 75.2 µM (inactive) with MCF7; > 100 µM (inactive) with TK-10; 41.2 µM (inactive) in the test on HCT-116; > 100 µM (inactive) in the test with ACHN; 72.9 µM (inactive) with UACC-257. The GI50 with Malme-3M was > 100 µM (inactive); in the test on RXF 393, 67.1 µM (inactive); in the test on PC-3, 35.6 µM (inactive); in the test with MOLT-4, 40 µM (inactive); in the test on SN12C, 79.6 µM (inactive).

As to `Cc1oc2nc(N(C)C)nc(Cl)c2c1C`, the GI50 in the test on UO-31 was 26.8 µM (inactive); with NCI-H23, > 100 µM (inactive); with SW-620, > 100 µM (inactive); in the test on RPMI-8226, > 100 µM (inactive); with Hs-578T, > 100 µM (inactive); with OVCAR-3, > 100 µM (inactive). For the same molecule, the GI50 with TK-10 is > 100 µM (inactive); with HOP-62 it was > 100 µM (inactive); in the test on HCT-116, > 100 µM (inactive); in the test with ACHN, > 100 µM (inactive); in the test on HOP-92, 25.2 µM (inactive); in the test on UACC-257 it was > 100 µM (inactive). Besides, the GI50 with RXF 393 is 40.6 µM (inactive); in the test with PC-3, > 100 µM (inactive); with MOLT-4, > 100 µM (inactive); in the test with SN12C it was > 100 µM (inactive).

Consider `O=C1NN=C(c2c[nH]c3ccccc23)CC1NCc1ccccc1` (centres undefined), for which the GI50 with UO-31, with NCI-H23, in the test with LOX IMVI, with SW-620, with RPMI-8226 and in the test with Hs-578T was > 100 µM (inactive) each time. Moreover, the GI50 in the test with OVCAR-3, in the test on TK-10, with HOP-62, in the test on HCT-116, with ACHN and in the test on HOP-92 was > 100 µM (inactive) throughout. Also, the GI50 in the test with UACC-257, with Malme-3M, in the test on RXF 393, in the test on PC-3, with MOLT-4 and with SN12C was > 100 µM (inactive) in each case.

As to `CCN(CC)C(=O)c1cc([N+](=O)[O-])c(=O)n2c1[nH]c1ccccc12`, the GI50 in the test on UO-31, in the test with NCI-H23, in the test with LOX IMVI, with SW-620, with RPMI-8226 and in the test on Hs-578T was > 100 µM (inactive) throughout. For the same molecule, the GI50 in the test on OVCAR-3, with TK-10, in the test with HOP-62, in the test with HCT-116, in the test on ACHN and with HOP-92 was > 100 µM (inactive) throughout. Also, the GI50 in the test with UACC-257, with Malme-3M, in the test with RXF 393, in the test with PC-3, in the test with MOLT-4 and in the test with SN12C was > 100 µM (inactive) in each case.

Turning to `Cc1ccc(/N=N/c2c(O)c(C(=O)O)cc3ccccc23)c(S(=O)(=O)O)c1`, the GI50 in the test with UO-31, in the test with NCI-H23, with LOX IMVI, in the test on SW-620, with RPMI-8226 and with Hs-578T was > 100 µM (inactive) in each case. In addition, the GI50 was > 100 µM (inactive) in the test with OVCAR-3; > 100 µM (inactive) in the test with TK-10; > 100 µM (inactive) in the test on HOP-62; > 100 µM (inactive) with HCT-116; > 100 µM (inactive) in the test on ACHN; 97.1 µM (inactive) in the test with HOP-92. For the same molecule, the GI50 with UACC-257, with Malme-3M, in the test with RXF 393, in the test on PC-3, in the test with MOLT-4 and in the test with SN12C was > 100 µM (inactive) throughout.

`CC[C@](C)(O)C(=O)O[C@H]1C(=O)O[C@@H]2C[C@H]3C(C)=CC(=O)[C@@H](O)[C@]3(C)[C@H]3[C@@]4(O)OC[C@]32[C@@H]1[C@@H](C)[C@H]4O` [GLAUCARUBINONE]: the GI50 in the test on UO-31 was 0.378 µM (active); in the test with NCI-H23, 0.0796 µM (active); with LOX IMVI, 0.0354 µM (active); in the test with SW-620 it was 0.075 µM (active); in the test on RPMI-8226 it was 0.0548 µM (active); with Hs-578T, 0.167 µM (active). Moreover, the 50% growth inhibitory concentration (GI50) with OVCAR-3 was 0.0982 µM (active); in the test with TK-10, 0.39 µM (active); with HOP-62 it was 0.0794 µM (active); in the test on HCT-116, 0.05 µM (active); with ACHN, 0.292 µM (active); with HOP-92, 0.049 µM (active). Further, the GI50 is 0.0675 µM (active) in the test with UACC-257; 0.05 µM (active) with RXF 393; 0.458 µM (active) with PC-3; 0.05 µM (active) in the test on MOLT-4; 0.158 µM (active) with SN12C.

One may read the GI50 as the concentration at which growth is held to half of that of the control.
